Measured values reported in US6781000B1, “Alpha-ketoamide inhibitors of 20S proteasome” (CV Theurapeutics, Inc., priority 1998, dated 2004).

Columns and labels:
[1] = target: T1, chymotrypsin-like activity of 20S proteasome (Bos taurus, UniProt Q2TBX6+Q32KL2); assay: 20S proteasome chymotryptic activity inhibition assay (Suc-Leu-Leu-Val-Tyr-AMC cleavage); assay type: biochemical; conditions: 2 μg 20S proteasome from bovine brain, 50 μM fluorogenic substrate, 15 minutes at 37° C., pH7.5
T1 construct: was purified to homogeneity from bovine brain according to published methods; from tissue; host or cells: bovine brain
Outline: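 Bovine brain 20S proteasome (2 μg) with inhibitor at 0.1-100 μg/ml in 50 mM HEPES, 0.1% SDS, pH7.5. Reaction started with 50 μM Suc-LLVY-AMC, run 15 min at 37° C, stopped with pH 4.0 acetate; liberated AMC read by fluorescence (EX 370 nm, EM 430 nm).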

[2] = target: T2, peptidylglutamyl activity of 20S proteasome (Bos taurus, UniProt Q2TBP0+Q3MHN0); assay: 20S proteasome peptidylglutamyl activity inhibition assay (CBZ-D-Ala-Leu-Glu-AMC cleavage); assay type: biochemical; conditions: Example 6: 2 μg 20S proteasome from bovine brain, substrate CBZ D-Ala-Leu-Glu-AMC, 15 minutes at 37° C.
T2 construct: was purified to homogeneity from bovine brain according to published methods; from tissue; host or cells: bovine brain
Experimental: Compounds of this invention prepared according to the method of Example 1 were also tested as follows. The 20S catalytic subunit of the proteasome (also known as the multicatalytic proteinase complex) was purified to homogeneity from bovine brain according to published methods (Wilk S. and Orlowski, M. 1983, 40 842 J. Neurochem). […] of the complex is measured by the increase in fluorescence following cleavage of the substrate peptide CBZ D-Ala-Leu-Glu-(7-amino-4-methyl coumarin). The standard in vitro assay consists of 2 μg 20S proteasome, 0.1-100 μg/ml proteasome inhibitor in […] 50 mM HEPES, containing 0.1% sodium dodecyl sulphate, pH 7.5. The proteolytic reaction is initiated by the addition of […] fluorogenic peptide substrate and allowed to progress for 15 minutes at 37° C. The reaction is terminated by the addition of […] 100 mM acetate buffer, pH 4.0. The rate of proteolysis is directly proportional to the amount of liberated aminomethylcoumarin which is measured by fluorescent spectroscopy (EX 370 nm, EM 430 nm). Compounds 1-207 were tested for peptidylglutamyl activity inhibition at >10 μg/mL. Compound 190 was active at 5 μg/mL.

| Compound | IC50 for the inhibition of the chymotrypsin-like activity of 20S proteasome [1] | also measured |
| --- | --- | --- |
| CCC(C)C(NC(=O)C(=O)Cc1c[nH]c2ccccc12)C(=O)NC(CC(C)C)C(=O)NC(C(=O)O)C(C)C (stereo not shown) [Compound 167] | >10 µg/mL | – |
| CC(C)CC(NC(=O)C(Cc1ccc2ccccc2c1)NC(=O)C(=O)Cc1c[nH]c2ccccc12)C(=O)NCC(=O)O (stereo not shown) [Compound 170] | >10 µg/mL | – |
| CC(C)CC(NC(=O)C(Cc1ccc(-c2ccccc2)cc1)NC(=O)C(=O)Cc1c[nH]c2ccccc12)C(=O)NCC(=O)O (stereo not shown) [Compound 171] | >10 µg/mL | – |
| CC(C)CC(NC(=O)C(CC1CCCCC1)NC(=O)C(=O)Cc1c[nH]c2ccccc12)C(=O)NC(C(=O)O)C(C)C (stereo not shown) [Compound 172] | >10 µg/mL | – |
| CCCCC(NC(=O)C(CC(C)C)NC(=O)C(Cc1ccc(-c2ccccc2)cc1)NC(=O)C(=O)Cc1c[nH]c2ccccc12)C(=O)O (stereo not shown) [Compound 174] | 5 µg/mL | – |
| CC(C)CC(NC(=O)C(Cc1ccc(-c2ccccc2)cc1)NC(=O)C(=O)Cc1c[nH]c2ccccc12)C(=O)NC(CC(=O)O)C(=O)O (stereo not shown) [Compound 176] | 1 µg/mL | – |
| CC(C)CC(NC(=O)C(Cc1ccc2ccccc2c1)NC(=O)C(=O)Cc1c[nH]c2ccccc12)C(=O)NC(Cc1ccccc1)C(=O)O (stereo not shown) [Compound 179] | >10 µg/mL | – |
| CC(C)CC(NC(=O)C(Cc1ccc2ccccc2c1)NC(=O)C(=O)Cc1c[nH]c2ccccc12)C(=O)NC(CC(=O)O)C(=O)O (stereo not shown) [Compound 180] | 5 µg/mL | – |
| CC(C)CC(NC(=O)CNC(=O)C(=O)Cc1c[nH]c2ccccc12)C(=O)NCC(=O)O (stereo not shown) [Compound 184] | >10 µg/mL | – |
| CC(C)CC(NC(=O)C(Cc1ccc(-c2ccccc2)cc1)NC(=O)C(=O)Cc1c[nH]c2ccccc12)C(=O)NC(CC(N)=O)C(=O)O (stereo not shown) [Compound 185] | 5 µg/mL | – |
| CC(C)CC(NC(=O)C(Cc1ccc(-c2ccccc2)cc1)NC(=O)C(=O)Cc1c[nH]c2ccccc12)C(=O)NC(CCC(N)=O)C(=O)O (stereo not shown) [Compound 186] | >10 µg/mL | – |
| CC(C)CC(NC(=O)C(Cc1ccc(-c2ccccc2)cc1)NC(=O)C(=O)Cc1c[nH]c2ccccc12)C(=O)NC(Cc1ccc(-c2ccccc2)cc1)C(=O)O (stereo not shown) [Compound 187] | >10 µg/mL | – |
| CC(C)CC(NC(=O)C(Cc1ccc(-c2ccccc2)cc1)NC(=O)C(=O)Cc1c[nH]c2ccccc12)C(=O)NCCC(=O)O (stereo not shown) [Compound 188] | 5 µg/mL | – |
| CC(C)CC(NC(=O)C(Cc1ccc(-c2ccccc2)cc1)NC(=O)C(=O)Cc1c[nH]c2ccccc12)C(=O)NC(Cc1ccc(-c2ccccc2)cc1)C(=O)O (stereo not shown) [Compound 189] | >10 µg/mL | – |
| CC(C)CC(NC(=O)C(Cc1ccc(-c2ccccc2)cc1)NC(=O)C(=O)Cc1c[nH]c2ccccc12)C(=O)NC(CCCNC(=N)N)C(=O)O (stereo not shown) [Compound 191] | – | IC50 [1]: 4.31 µM |
| CC(C)CC(NC(=O)C(Cc1ccc(-c2ccccc2)cc1)NC(=O)C(=O)Cc1c[nH]c2ccccc12)C(=O)NC(CCCCN)C(=O)O (stereo not shown) [Compound 193] | >10 µg/mL | – |
| CC(C)CC(NC(=O)C(Cc1ccc(-c2ccccc2)cc1)NC(=O)C(=O)Cc1c[nH]c2ccccc12)C(=O)NC(C(=O)O)c1ccccc1 (stereo not shown) [Compound 194] | >10 µg/mL | – |
| CC(C)CC(NC(=O)C(Cc1ccc(-c2ccccc2)cc1)NC(=O)C(=O)Cc1c[nH]c2ccccc12)C(=O)NC(Cc1cscn1)C(=O)O (stereo not shown) [Compound 198] | >10 µg/mL | – |
| CCCC(NC(=O)C(=O)Cc1c[nH]c2ccccc12)C(=O)NC(CC(C)C)C(=O)NC(C(=O)O)C(C)C (stereo not shown) [Compound 199] | >10 µg/mL | – |
| CC(C)C[C@@H](NC(=O)[C@H](CC(=O)O)NC(=O)C(=O)Cc1c[nH]c2ccccc12)C(=O)N[C@H](C(=O)O)C(C)C [Compound 200] | – | IC50 [1]: > 18.8 µM |

Now from value to compound, other results behind:

| IC50 for the inhibition of the chymotrypsin-like activity of 20S proteasome [1] | Compound | also measured |
| --- | --- | --- |
| >10 µg/mL | CC(C)CC(NC(=O)C(CC1CCCCC1)NC(=O)C(=O)Cc1c[nH]c2ccccc12)C(=O)NC(C(=O)O)C(C)C (stereo not shown) [Compound 168] | – |
| >10 µg/mL | CC(C)CC(NC(=O)C(Cc1cccnc1)NC(=O)C(=O)Cc1c[nH]c2ccccc12)C(=O)NCC(=O)O (stereo not shown) [Compound 169] | – |
| >10 µg/mL | CC(C)CC(NC(=O)C(Cc1cccnc1)NC(=O)C(=O)Cc1c[nH]c2ccccc12)C(=O)NC(C(=O)O)C(C)C (stereo not shown) [Compound 173] | – |
| >10 µg/mL | CC(C)CC(NC(=O)C(Cc1ccc(-c2ccccc2)cc1)NC(=O)C(=O)Cc1c[nH]c2ccccc12)C(=O)NC(Cc1ccccc1)C(=O)O (stereo not shown) [Compound 175] | – |
| >10 µg/mL | CCCCC(NC(=O)C(CC(C)C)NC(=O)C(Cc1ccc2ccccc2c1)NC(=O)C(=O)Cc1c[nH]c2ccccc12)C(=O)O (stereo not shown) [Compound 178] | – |
| >10 µg/mL | CC(C)CC(NC(=O)C(=O)Cc1c[nH]c2ccccc12)C(=O)NC(Cc1ccccc1)C(=O)O (stereo not shown) [Compound 182] | – |
| 3 µg/mL | CC(C)CC(NC(=O)C(Cc1ccc(-c2ccccc2)cc1)NC(=O)C(=O)Cc1c[nH]c2ccccc12)C(=O)NC(Cc1c[nH]cn1)C(=O)O (stereo not shown) [Compound 190] | peptidylglutamyl activity inhibition, active at [2]: 5 µg/mL |
| 3 µg/mL | CC(C)CC(NC(=O)C(Cc1ccc(-c2ccccc2)cc1)NC(=O)C(=O)Cc1c[nH]c2ccccc12)C(=O)NC(Cc1cccnc1)C(=O)O (stereo not shown) [Compound 192] | – |
| >10 µg/mL | CC(C)CC(NC(=O)C(Cc1ccc(-c2ccccc2)cc1)NC(=O)C(=O)Cc1c[nH]c2ccccc12)C(=O)NC(CC(=O)O)C(=O)O (stereo not shown) [Compound 195] | – |
| >10 µg/mL | CC(C)CC(NC(=O)C(Cc1ccc(-c2ccccc2)cc1)NC(=O)C(=O)Cc1c[nH]c2ccccc12)C(=O)NC(Cc1c[nH]cn1)C(=O)O (stereo not shown) [Compound 196] | – |
| >10 µg/mL | CCCC(NC(=O)C(=O)Cc1c[nH]c2ccccc12)C(=O)NC(CC(C)C)C(=O)NC(C(=O)O)C(C)C (stereo not shown) [Compound 201] | – |
| >10 µg/mL | CC(C)C(NC(=O)C(NC(=O)C(Cc1ccc(O)cc1)NC(=O)C(=O)Cc1c[nH]c2ccccc12)C(C)C)C(=O)O (stereo not shown) [Compound 202] | – |
| >10 µg/mL | CC(C)C(NC(=O)C(NC(=O)C(NC(=O)C(=O)Cc1c[nH]c2ccccc12)C(C)C)C(C)C)C(=O)O (stereo not shown) [Compound 203] | – |
| >10 µg/mL | CC(C)CC(NC(=O)C(Cc1ccc2ccccc2c1)NC(=O)C(=O)Cc1c[nH]c2ccccc12)C(=O)NC(Cc1c[nH]cn1)C(=O)O (stereo not shown) [Compound 204] | – |
| >10 µg/mL | CC(C)CC(NC(=O)C(Cc1ccc2ccccc2c1)NC(=O)C(=O)Cc1c[nH]c2ccccc12)C(=O)NC(CCCNC(=N)N)C(=O)O (stereo not shown) [Compound 205] | – |
| >10 µg/mL | CC(C)CC(NC(=O)C(Cc1ccc2ccccc2c1)NC(=O)C(=O)Cc1c[nH]c2ccccc12)C(=O)NC(Cc1cccnc1)C(=O)O (stereo not shown) [Compound 206] | – |
